Laboratory results taken from patent US20120095024A1, “TOLUIDINE SULFONAMIDES AND THEIR USE” (Elara Pharmaceuticals GmbH, priority 2008, published 2012).

Key:
HG1 cells = experiment: Cell proliferation assay (ATPlite), HG-1; format: cell-based; details: inhibition of cell proliferation, 72 h
Protocol: MCF-7 human breast adenocarcinoma cells and HL-60 acute promyelocytic leukaemia cells were obtained from ATCC (LGC Promochem). HG-1 multiple myeloma cells were obtained from Dr. D. Hose (DKFZ Heidelberg). The CellSensor® HRE-bla HCT116 cell line (colorectal carcinoma) was obtained from Invitrogen.
Cells were grown under humidified 95% air, 5% CO2 at 37° C. in Dulbecco's modified Eagle's medium (DMEM: MCF-7) or RPMI 1640 medium (RPMI: HL-60, HG-1) supplemented with 10% fetal bovine serum (FBS), 100 U/ml penicillin and 100 μg/ml streptomycin, 2 mM L-glutamine, and 2 ng/ml IL-6 (for the HG-1 cell line only). The HCT116 cell line was grown under the same atmospheric conditions in McCoy's 5A medium supplemented with 10% FBS and penicillin/streptomycin as above, in addition to blasticidin as a selection marker at a final concentration of 5 μg/ml.
Cell proliferation experiments were carried out in 96-well tissue culture plates with seeding of 2000 cells/well (MCF-7) or 1000 cells/well (HL-60, HG-1) in 100 μl of the relevant medium. Cells were subsequently incubated under the conditions mentioned for 24 h prior to addition of compounds.
For the determination of compound EC50 values, 10 μl compounds at 11× concentrations in 5.5% DMSO were added to the wells at various concentrations yielding a final constant percentage of 0.5% DMSO at the desired 1× compound concentration. As a positive control, cells were treated with 5.5% DMSO. The cells were then incubated for a further 72 h prior to the measurement.
To determine the degree of inhibition of cell proliferation, cells were treated with ATPlite solution according to the manufacturer's instructions (PerkinElmer, ATPlite 1-step Luminescence ATP Detection Assay System) and luciferase readout measured on an Envision HTS multilabel plate reader (PerkinElmer) in luminescence mode according to established protocols. Raw data were imported into an ActivityBase database (IDBS, ID Business Solutions) and EC50 values calculated using the IDBS program ActivityBase XE. Table 2A and 2B show the IC50 values obtained in the above-outlined cell proliferation assay for exemplary compounds of the invention.

[1] = test system: estrogen receptor (ER)-mediated transcriptional activity; experiment: Inhibition of estrogen receptor (ER) signaling, ERE-tk-luc transfection assay in MCF-7 cells; format: cell-based; details: Homo sapiens, MCF7, ERE-tk-luc luciferase readout, 24 h
Protocol: To determine the effect of the compounds on estrogen receptor (ER)-mediated transcriptional activity a transfection assay using the MCF-7 cell line was performed. A luciferase-coupled ERE-tk-luc construct was obtained from Dr. G. Reid (EMBL).
In brief, MCF-7 cells were maintained as described previously and seeded on the first experimental day at a concentration of 3500 cells/well in 100 μl medium and incubated under standard conditions for 24 h. Following this initial incubation period, transfection was carried out using 5 ng of the ERE-tk-luc construct (per well) and Exgene 500 transfection reagent (Fermentas) in a final buffered solution containing 150 mM NaCl and 20 mM Tris pH 8.4. The plates were then maintained for 3-4 hours until cell culture conditions in the incubator before compounds were added at 11× concentrations to yield the final desired compound concentrations in 0.5% DMSO (in the same manner as for the proliferation assays described previously).
After an additional 24 h incubation period the degree of inhibition of ER-signaling was determined via a luciferase readout. Cells were treated with Britelite™ plus solution according to the manufacturer's instructions (PerkinElmer, britelite plus, Ultra-High Sensitivity Luminescence Reporter Gene Assay System) and luciferase levels measured on an Envision HTS multilabel plate reader (PerkinElmer) in luminescence mode according to established protocols. Raw data were imported into an ActivityBase database (IDBS, ID Business Solutions) and IC50 values calculated using the IDBS program ActivityBase XE.

MCF7 cells = experiment: Cell proliferation assay (ATPlite), MCF-7; format: cell-based, human; details: Homo sapiens, inhibition of cell proliferation, 72 h
Summary of the method: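 Cells seeded (MCF-7 2000/well, HG-1 1000/well in RPMI with 2 ng/ml IL-6), then after 24 h exposed to compound at 0.5% DMSO final for 72 h. Proliferation read as ATP luminescence (ATPlite); EC50 calculated from the dose-response.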

[2] = test system: HIF mediated transcription; experiment: Inhibition of activation of HIF mediated transcription under hypoxic conditions (CellSensor HRE-bla HCT-116); format: cell-based; details: Homo sapiens; HRE-bla HCT-116 cells, deferoxamine-induced hypoxia, 24 h
Protocol: Inhibition of an activated HIF signaling response under chemically-induced hypoxic conditions due to compound treatment was determined using the CellSensor® HRE-bla HCT-116 stably transfected reporter cell line from Invitrogen according to the manufacturer's instructions. HIF is a transcriptional factor composed of the constitutively expressed HIF1β subunit and one of three HIFα subunits (HIF1α, HIF2α, HIF3α). This assay is responsive towards HIFa activity in general. In one example, HIF-1, when stabilized by hypoxic conditions, upregulates several genes to promote cell survival in low-oxygen conditions. These include glycolysis enzymes, which allow ATP synthesis in an oxygen-independent manner, and vascular endothelial growth factor (VEGF), which promotes angiogenesis. HIF-1 acts by binding to HIF-responsive elements (HREs) in promoters that generally contain the sequence NCGTG.
Cells were maintained as described previously and seeded into 384-well, clear-bottom plates (Corning 3712) at 15000 cells/well in 32 μl assay medium (Opti-MEM [Invitrogen], 0.5% FBS, 100 U/ml penicillin, 100 μg/ml streptomycin, 0.1 mM non-essential amino acids [NEAA], 1 mM sodium pyruvate, 5 mM HEPES [pH 7.3]). Following a 2 h incubation period, compounds (4 μl) were subsequently added to the cells at 10× concentrations in 5% DMSO and incubated under normal conditions for 30 min. To induce hypoxic conditions, 4 μl of a 2 mM deferoxamine (DFO) solution was added to the cells followed by 24 h incubation under standard assay conditions (as described). Control wells included wells containing only medium (no cells) and wells treated with 0.5% DMSO instead of compound.
Prior to the readout, the Substrate Loading Solution was prepared as described in the manufacturer's protocol and 10 μl added to each well. Following a further 2 h incubation period at room temperature and in the dark, fluorescence was measured at two wavelengths (blue channel: ex. 409 nm, em. 460 nm; green channel: ex. 409 nm, em. 530 nm) on a PerkinElmer Envision HTS. For the analysis, the average signal of the cell-free wells at 460 nm and 530 nm was first subtracted from the blue and green channel data, respectively. The blue/green emission ratios were then calculated for each well, dividing the background-corrected blue emission values by the background-corrected green emission values. IC50 values were determined from these ratios using GraphPad Prism (Prism 5, GraphPad software, Inc.).

tubulin = biological target: T1, tubulin (Sus scrofa, UniProt P02550+P02554); experiment: Inhibition of in vitro tubulin polymerization; format: biochemical, porcine; details: final absorbance 340 nm at 90 min
T1 construct: prepared in-house from porcine brain using a standard procedure involving cycles of polymerization/de-polymerization; from tissue; host or cells: porcine brain
Protocol: To assess the degree of inhibition of in vitro tubulin polymerization, a tubulin solution (prepared in-house from porcine brain using a standard procedure involving cycles of polymerization/de-polymerization, see Castoldi & Popov (2003) Protein Expr. Purif. 32(1): 83-88) was incubated with varying concentrations of compounds under polymerizing conditions and kinetic experiments performed to determine the amount of polymerization (as measured by changes in OD at 340 nm) taking place over a 90 min period.
Compound solutions were diluted in double-distilled water to yield final 10× solutions containing 5% DMSO. 5 μl solutions were then added to the wells on a 384-well clear-bottom plate (Corning #3711, Corning Inc.) in preparation for the addition of tubulin. The tubulin solution (19.6 mg/ml, in 80 mM K-PIPES [pH 6.8], 1 mM MgCl2, 1 mM EGTA) was re-suspended to a final concentration of 4 mg/ml with ice cold G-PEM buffer (80 mM PIPES [pH 6.8], 2 mM MgCl2, 0.5 mM EGTA, 10% glycerol, 1 mM GTP) and maintained on ice for at least 1 min. 50 μl was then added to the pre-dispensed compound solutions, the plate orbital shaken on a medium setting for 5 s, and the first measurement begun immediately.
Experiments were carried out on a Safire^2™ monochromator (Tecan) preset to a stable temperature of 37° C.; the degree of polymerization was determined by measuring the absorbance of the solutions at 340 nm every minute over the 90 min cycle. Reported inhibition values were based on the final absorbance at 90 min and calculated with reference to a vehicle control (0.5% DMSO) using the minimum and maximum signals obtained for this sample.

caspase-3/7 = experiment: Activation of apoptosis, Caspase-Glo 3/7 in HG-1 cells; format: cell-based; details: caspase-3/7 activation, 24 h
Protocol: Activation of caspase-3/7 signal following treatment with test compounds was carried out using a Caspase-Glo® 3/7 kit (Promega). In brief, HG-1 cells were seeded at a concentration of 1000 cells/well in 50 μl medium into 96-well plates and incubated for 24 h under the conditions described previously. Compounds at various concentrations were then added to the wells (at all final concentrations 0.5% DMSO) and incubated for a further 24 h period. The plates were subsequently removed from the incubator and allowed to equilibrate to room temperature, after which 50 μl Caspase-Glo reagent was added to all wells, the plate shaken at 300 rpm for 30 s, and luminescence measured after a 30 min incubation period on an Envision HTS (PerkinElmer).

T1 sequence (P02550 whole entry): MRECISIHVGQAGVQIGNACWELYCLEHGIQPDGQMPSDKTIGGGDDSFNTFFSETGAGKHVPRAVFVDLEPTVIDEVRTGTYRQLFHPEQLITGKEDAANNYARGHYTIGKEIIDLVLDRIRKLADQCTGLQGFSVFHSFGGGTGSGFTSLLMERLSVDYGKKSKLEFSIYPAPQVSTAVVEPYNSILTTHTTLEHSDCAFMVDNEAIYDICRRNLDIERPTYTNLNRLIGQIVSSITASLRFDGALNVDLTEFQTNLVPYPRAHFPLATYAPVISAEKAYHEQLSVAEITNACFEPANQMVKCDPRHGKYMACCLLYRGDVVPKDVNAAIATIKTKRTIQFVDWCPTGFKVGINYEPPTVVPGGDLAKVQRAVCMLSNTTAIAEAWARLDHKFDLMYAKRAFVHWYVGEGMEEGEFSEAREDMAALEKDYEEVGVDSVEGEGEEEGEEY
T1 sequence (P02554 whole entry): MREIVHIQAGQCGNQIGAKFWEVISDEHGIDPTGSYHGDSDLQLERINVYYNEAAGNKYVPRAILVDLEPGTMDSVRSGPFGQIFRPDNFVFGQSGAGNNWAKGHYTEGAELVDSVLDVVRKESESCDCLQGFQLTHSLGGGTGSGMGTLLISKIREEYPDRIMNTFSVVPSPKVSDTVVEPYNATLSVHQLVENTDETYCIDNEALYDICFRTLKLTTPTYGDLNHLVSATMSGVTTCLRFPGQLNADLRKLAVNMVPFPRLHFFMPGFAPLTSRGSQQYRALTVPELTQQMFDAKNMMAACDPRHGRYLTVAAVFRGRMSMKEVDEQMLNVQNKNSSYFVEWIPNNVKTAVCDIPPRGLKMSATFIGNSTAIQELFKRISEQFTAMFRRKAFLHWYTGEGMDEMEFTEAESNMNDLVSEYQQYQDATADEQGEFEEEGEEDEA

Row | IC50 [1] [nM] | EC50 (MCF7 cells) [nM] | EC50 [2] [nM] | inhibition at 10 µM (tubulin) [%] | EC50 (caspase-3/7) [nM] | Compound | EC50 (HG1 cells) [nM]
1 | < 500 | < 500 |  |  |  | Cc1ccc(S(=O)(=O)Nc2cc(-n3cccc3)ccc2C)cc1 [Example 15, 4-Methyl-N-(2-methyl-5-pyrrol-1-yl-phenyl)-benzenesulfonamide] | < 500
2 | < 500 | < 500 | < 500 |  |  | Cc1ccc(S(=O)(=O)Nc2cc(-c3ccc(C#N)cn3)ccc2C)cc1 [Example 43, N-[5-(5-Cyano-pyridin-2-yl)-2-methyl-phenyl]-4-methyl-benzenesulfonamide] | 
3 |  | < 500 | < 500 |  |  | Cc1ccc(S(=O)(=O)Nc2cc(-c3ccsc3)ccc2C)cc1 [Example 8, 4-Methyl-N-(2-methyl-5-thiophen-3-yl-phenyl)-benzenesulfonamide] | < 500
4 |  | < 500 |  | 20 to 50 |  | Cc1ccc(S(=O)(=O)Nc2cc(-c3ccc(C)s3)ccc2C)cc1 [Example 11, 4-Methyl-N-[2-methyl-5-(5-methyl-thiophen-2-yl)-phenyl]-benzenesulfonamide] | 
5 | < 500 | < 500 |  |  |  | Cc1ccc(S(=O)(=O)Nc2cc(-c3ccoc3)ccc2C)cc1 [Example 5, N-(5-Furan-3-yl-2-methyl-phenyl)-4-methyl-benzenesulfonamide] | 
6 |  | < 500 |  | < 20 | < 500 | COc1ccc(S(=O)(=O)Nc2cc(-c3ccc(C#N)cc3)ccc2C)cc1 [Example 63, N-(4′-Cyano-4-methyl-biphenyl-3-yl)-4-methoxy-benzenesulfonamide] | 
7 | < 500 | < 500 |  | < 20 |  | Cc1ccc(S(=O)(=O)Nc2cc(-c3ccc(C#N)c(C)c3)ccc2C)cc1 [Example 72, N-(4′-Cyano-4,3′-dimethyl-biphenyl-3-yl)-4-methyl-benzenesulfonamide] | 
8 |  | 1000 to 10000 |  |  |  | Cc1ccc(S(=O)(=O)Nc2cc(-n3cnnc3)ccc2C)cc1 [Example 22, 4-Methyl-N-(2-methyl-5-[1,2,4]triazol-4-yl-phenyl)-benzenesulfonamide] | < 500
9 |  | 500 to 1000 |  |  |  | Cc1ccc(S(=O)(=O)Nc2cc(-c3ccccn3)ccc2C)cc1 [Example 19, 4-Methyl-N-(2-methyl-5-pyridin-2-yl-phenyl)-benzenesulfonamide] | < 500
10 |  | < 500 | < 500 | > 50 |  | Cc1ccc(S(=O)(=O)Nc2cc(-c3cscc3C)ccc2C)cc1 [Example 23, 4-Methyl-N-[2-methyl-5-(4-methyl-thiophen-3-yl)-phenyl]-benzenesulfonamide] | 
11 |  | < 500 | < 500 | > 50 |  | Cc1ccc(S(=O)(=O)Nc2cc(-c3ccc(C)o3)ccc2C)cc1 [Example 3, 4-Methyl-N-[2-methyl-5-(5-methyl-furan-2-yl)-phenyl]-benzenesulfonamide] | 
12 | < 500 | < 500 |  |  |  | COc1ccc(S(=O)(=O)Nc2cc(-c3ccc(C#N)cn3)ccc2C)cc1 [Example 49, N-[5-(5-Cyano-pyridin-2-yl)-2-methyl-phenyl]-4-methoxy-benzenesulfonamide] | 
13 |  | < 500 | < 500 |  |  | COc1ccc(S(=O)(=O)Nc2cc(-c3csc(C#N)c3)ccc2C)cc1 [Example 73, N-[5-(5-Cyano-thiophen-3-yl)-2-methyl-phenyl]-4-methoxy-benzenesulfonamide] | < 500
14 |  | < 500 |  | 20 to 50 |  | COc1ccc(S(=O)(=O)Nc2cc(-c3c(C)noc3C)ccc2C)cc1 [Example 16, N-[5-(3,5-Dimethyl-isoxazol-4-yl)-2-methyl-phenyl]-4-methoxy-benzenesulfonamide] | 
15 |  | < 500 |  | > 50 | < 500 | COc1ccc(S(=O)(=O)Nc2cc(-c3cc(C#N)cs3)ccc2C)cc1 [Example 56, N-[5-(4-Cyano-thiophen-2-yl)-2-methyl-phenyl]-4-methoxy-benzenesulfonamide] | 
